# Reference: patent publication US20160311788A1, “Antifouling Compounds And Use Thereof” (National University of Singapore, priority 2008, published 2016)
# What was measured:
# [1] = system: cyprids of Balanus amphitrite; experiment: barnacle settlement assay; assay type: in vivo; conditions: for IC50: Amphibalanus amphitrite, 24 h, Table 3(a), concentration that caused 50% settlement inhibition, 24 hours, cyprids, read-out: ED50 (the source's name); for percentage of cyprids that settled: after 24 hours incubation, averaged over two trials
# Method: (§1) Pure compounds were suspended in DMSO and sonicated to obtain a stock solution of 50 mg ml^−1 in DMSO. This stock solution is stored at −20° C. in 4 ml amber screw cap vials. For the bioassays, a small volume of stock solution was added to 1 μm filtered seawater in a glass scintillation vial. This suspension was then sonicated around 10 minutes. Serial dilutions were generated to the required range of concentrations. Serial dilution of the equivalent amounts of DMSO in seawater was used as the control.
# (§2) The barnacle bioassay method used follows from the method first introduced by Rittschof et al. (1992), and subsequently by other authors (Willemsen et al., 1998). This method is now standard practice for many antifouling screening of novel compounds.
# Barnacle settlement assays were based on methodology from Rittschof et al. (1992). Barnacle larvae from field-collected adults were reared on an algal mixture of 1:1 v/v of Tetraselmis suecica and Chaetoceros muelleri at 25° C., at approximately 5×10^5 cells per ml density. On this regime, larvae metamorphose to cyprids in 5 days. These cyprids were aged at 4° C. for 2-3 days, and 45-70% settlement after 24 hours (Willemsen et al., 1998).
# Settlement tests were conducted in 7 ml neutral glass vials (Samco® T1 03N1) 34 mm by 23 mm diameter, with 20-40 cyprids per well. Test solutions were made up to twice the required final concentration. 0.5 ml of test solution was added into each well, and cyprids were transferred into each well in 0.5 ml of seawater. Assays were done in triplicate. As before, there were two sets of controls, a blank control consisting 3 tubes of seawater only, and DMSO control consisting of the equivalent dilution series with DMSO without compound. After 24 hours, larvae that had attached and metamorphosed were enumerated and the result expressed as percentage settlement. Larvae not attached were scored as not settled. The assays were repeated and the concentration that caused 50% settlement inhibition (ED50) was determined by pro bit analysis using a basic computer program (Lieberman, 1983), or by estimation from graphed data.
# [2] = system: Stage II nauplii of Balanus amphitrite; experiment: barnacle toxicity assay; assay type: in vivo
# Method: as §1, §2
# Toxicity assays were modified from Rittschof et al. (1992). Stage II naupliar larvae used in tests were obtained from Balanus amphitrite adults collected from inter-tidal rock walls at Kranji mangrove, Singapore. Larvae were collected from a container of adults by attraction to a point source of light and transferred to 500 ml of fresh seawater. Next, larvae were re-concentrated with a fiber optic light and added to assays.
# Duplicate assays were conducted in 2 ml glass vials (La Pha Pack® PN 11-14-0544) in 1 ml of filtered seawater for 22 to 24 hours. The assays were repeated for confirmation. There were two sets of controls, a blank control consisting of 3 tubes of seawater only, and DMSO control consisting of the equivalent dilution series with DMSO without compound). For the compounds, there were 3 tubes of each for each test concentration. The assay was initiated by addition of barnacle naupliar in 50 μl of seawater. After 22 to 24 hours of incubation at 25-27° C. solutions containing test animals were transferred to a Bogorov tray and scored as living or dead. Moribund larvae were scored as dead. Results were confirmed by repeating the assay. Data were combined and the concentration that caused 50% mortality (LD50) was calculated by probit analysis using a basic computer program (Libermann, 1983). If data were not appropriate for probit analysis, the LD50 was estimated from graphed data.
# [3] = system: marine bacteria strain S29; experiment: disc inhibition assay, strain S29; assay type: cell-based, Bacillus hwajinpoensis; conditions: strain 29, 50 μg of compound per disc; for zone of inhibition at 50 µg/disc: Guptibacillus hwajinpoensis, S29, 24 h, read-out: zone of inhibition
# Method: (§3) The disc inhibition assay was used. This assay is a conventional method routinely used for screening antibacterial compounds to determine degree of susceptibility to antibacterial compounds. The diameter of the zone of inhibition is proportional to the degree of susceptibility of the bacterial strain. The compounds were tested against 13 strains of marine bacteria isolated from Singapore coastal waters.
# (§4) 13 strains of marine bacteria were isolated from fouling communities located in the coastal waters around Singapore. These were characterized in earlier studies and reported in Teo et al. (U.S. patent application Ser. No. 11/265,833) and Choong et al (in prep). In addition, four reference bacterial strains were added tested: Escherichia coli (Strain K12, ATCC 15222), E. coli (strain DH5a), Pseudomonas aeruginosa (strain LMG 12228; ATCC 15692) and P. putida (strain KT2440; ATCC 47054). All the bacteria were also tested against five antibiotics: ampicillin (AMP), tetracycline (TETR), erythromycin (ERY), chloramphenicol (CHL) and streptomycin (STREP).
# (§5) Disks comprising the compounds to be tested were prepared as follows. The antibacterial assay, the pure compounds were made up to a concentration of 2 mgml^−1 in DMSO. 25 μl of the stock was pipetted onto each 6 mm sterile disc (Macherey-Nagel #484000) to obtain 50 μg of compound per disc. Equivalent volume of DMSO was used inoculated for the control.
# (§6) For all disk inhibition assays, bacterial cultures were grown in marine broth (Pronadisa #1217.00). Sterile swabs dipped into the cultures were used to inoculate Marine Agar plates with a bacterial lawn by smearing the culture over the surface. After inoculating the plates, discs with antibiotics, pharmaceuticals or control blanks were placed on each plate. Each concentration of antibiotic or pharmaceutical was tested with two replicates. After the disks were placed on the agar surface, plates were incubated overnight in the dark at 35° C. After incubation, plates were examined for zones of inhibition or clearing around control and treated disks. The diameter of any zone of clearing or inhibition was measured using Vernier calipers. There were two replicates per treatment, and the average was taken.
# [4] = system: marine bacteria strain S1; experiment: disc inhibition assay, strain S1; assay type: cell-based, Rhodovulum iodosum; conditions: strain 1, 50 μg of compound per disc
# Method: as §3, §4, §5, §6
# [5] = system: marine bacteria strain S16; experiment: disc inhibition assay, strain S16; assay type: cell-based, Pseudoalteromonas piscicida; conditions: for zone of inhibition: strain 16, 50 μg of compound per disc
# Method: as §3, §4, §5, §6
# [6] = system: marine bacteria strain S30; experiment: disc inhibition assay, strain S30; assay type: cell-based, Bacillus borophilicus; conditions: strain 30, 50 μg of compound per disc; for zone of inhibition at 50 µg/disc: Bacillus, S30, 24 h, read-out: zone of inhibition
# Method: as §3, §4, §5, §6
# [7] = system: marine bacteria strain S9; experiment: disc inhibition assay, strain S9; assay type: cell-based, Bacillus algicola; conditions: strain 9, 50 μg of compound per disc; for zone of inhibition at 50 µg/disc: Guptibacillus algicola, S9, 24 h, read-out: zone of inhibition
# Method: as §3, §4, §5, §6
# [8] = system: marine bacteria strain S17; experiment: disc inhibition assay, strain S17; assay type: cell-based, Gordonia terrae; conditions: strain 17, 50 μg of compound per disc; for zone of inhibition at 50 µg/disc: Gordonia terrae, S17, 24 h, read-out: zone of inhibition
# Method: as §3, §4, §5, §6
# [9] = system: marine bacteria strain S14; experiment: disc inhibition assay, strain S14; assay type: cell-based, Vibrio probioticus; conditions: strain 14, 50 μg of compound per disc
# Method: as §3, §4
# (§7) Disks comprising the compounds to be tested were prepared as follows. The antibacterial assay, the pure compounds were made up to a concentration of 2 mgml^−1 in DMSO. […] Equivalent volume of DMSO was used inoculated for the control.
# as §6
# [10] = system: marine bacteria strain S27; experiment: disc inhibition assay, strain S27; assay type: cell-based, Tenacibaculum lutimaris; conditions: strain 27, 50 μg of compound per disc; for zone of inhibition at 50 µg/disc: Tenacibaculum lutimaris, S27, 24 h, read-out: zone of inhibition
# Method: as §3, §4, §5, §6
# [11] = system: marine bacteria strain S3; experiment: disc inhibition assay, strain S3; assay type: cell-based, Erythrobacter aquimaris; conditions: strain 3, 50 μg of compound per disc; for zone of inhibition at 50 µg/disc: Qipengyuania aquimaris, S3, 24 h, read-out: zone of inhibition
# Method: as §3, §4, §5, §6
# [12] = system: marine bacteria strain S4; experiment: disc inhibition assay, strain S4; assay type: cell-based, Bacillus algicola; conditions: strain 4, 50 μg of compound per disc; for zone of inhibition at 50 µg/disc: Guptibacillus algicola, S4, 24 h, read-out: zone of inhibition
# Method: as §3, §4, §5, §6
# [13] = system: marine bacteria strain S18; experiment: disc inhibition assay, strain S18; assay type: cell-based, Microbacterium esteraromaticum; conditions: strain 18, 50 μg of compound per disc; for zone of inhibition at 50 µg/disc: Microbacterium esteraromaticum, S18, 24 h, read-out: zone of inhibition
# Method: as §3, §4, §7, §6
# [14] = system: marine bacteria strain S10; experiment: disc inhibition assay, strain S10; assay type: cell-based, Halobacillus trueperi; conditions: strain 10, 50 μg of compound per disc; for zone of inhibition at 50 µg/disc: Halobacillus trueperi, S10, 24 h, read-out: zone of inhibition
# Method: as §3, §4, §5, §6
# [15] = system: marine bacteria strain S28; experiment: disc inhibition assay, strain S28; assay type: cell-based, Arthrobacter protophormial; conditions: strain 28, 50 μg of compound per disc; for zone of inhibition at 50 µg/disc: Arthrobacter, S28, 24 h, read-out: zone of inhibition
# Method: as §3, §4, §5, §6
# [16] = Table 3(a), concentration that caused 50% mortality, 22 to 24 hours, Stage II nauplii
# [17] = Table 3(b), highest concentration tested 25 μg/ml
Structure (SMILES),IC50 [1],zone of inhibition [4],zone of inhibition [6],zone of inhibition at 50 µg/disc [7],zone of inhibition [8],zone of inhibition [9],zone of inhibition [10],zone of inhibition [11],zone of inhibition [12],zone of inhibition [13],zone of inhibition [14],zone of inhibition [15],zone of inhibition at 50 µg/disc [3],zone of inhibition [5],zone of inhibition at 50 µg/disc [8],zone of inhibition at 50 µg/disc [10],zone of inhibition at 50 µg/disc [11],zone of inhibition at 50 µg/disc [12],zone of inhibition at 50 µg/disc [13],zone of inhibition at 50 µg/disc [14],also measured
"CN1CCN(C(=O)C(c2ccccc2)c2ccccc2)CC1 [Compound 4.2, 1-(4-Methylpiperazin-1-yl)-2,2-diphenylethanone]",> 50 µg/mL,,,,,,,,,,,,,,,,,,,,"anti-settlement activity in words [1]: eliminated anti-settlement behaviour; LD50 [2, 16]: 14.32 µg/mL"
CN1CCC(O)(c2ccc(Cl)cc2)CC1 [Compound 4.6],< 10 µg/mL,−,−,2 to 5 mm,−,−,−,−,−,−,−,−,,,,,,,,,"zone of inhibition [3]: −; zone of inhibition at 50 µg/disc ([5]; Pseudoalteromonas piscicida, S16, 24 h): 2 to 5 mm"
O=C(C(c1ccccc1)c1ccccc1)N1CCC(CCO)CC1 [Compound 9.2],> 50 µg/mL,,,,,,,,,,,,,,,,,,,,"LD50 [2, 16]: 49.24 µg/mL"
"CCCCC(CCCC)C(=O)N1CCCCC1 [Compound 12.2, 2-Butyl-1-(piperidin-1-yl)hexan-1-one]",,−,,2 to 5 mm,,−,,,,,,,2 to 5 mm,−,2 to 5 mm,2 to 5 mm,5 to 10 mm,2 to 5 mm,5 to 10 mm,2 to 5 mm,percentage of cyprids that settled ([1]; 0.2 ug/ml): 8.94%; percentage of cyprids that settled ([1]; 1 ug/ml): 8.42%; percentage of cyprids that settled ([1]; 5 ug/ml): 8.37%; percentage of cyprids that settled ([1]; 25 ug/ml): 0%; zone of inhibition at 50 µg/disc [6]: 2 to 5 mm; zone of inhibition at 50 µg/disc [15]: 2 to 5 mm
C=CCCCCC(C(=O)N1CCCCC1)c1ccccc1 (stereo not drawn) [Compound 12.4],,−,−,2 to 5 mm,,−,,,,,,−,2 to 5 mm,−,2 to 5 mm,2 to 5 mm,> 10 mm,2 to 5 mm,5 to 10 mm,2 to 5 mm,
O=C(C(CCCCC(O)CO)c1ccccc1)N1CCCCC1 (stereo not drawn) [Compound 12.5],,−,−,,−,−,−,−,−,−,−,−,2 to 5 mm,−,,,,,,,zone of inhibition [7]: −
CCCCC(CCCCC(O)CO)C(=O)N1CCCCC1 (stereo not drawn) [Compound 12.6],,−,−,,−,−,−,−,−,−,−,−,,−,,,,,,,zone of inhibition [3]: −; zone of inhibition [7]: −
C=CCCCCC(CCCC)C(=O)N1CCCCC1 (stereo not drawn) [Compound 12.7],,,,5 to 10 mm,,−,,,,,,,2 to 5 mm,−,5 to 10 mm,2 to 5 mm,> 10 mm,5 to 10 mm,> 10 mm,5 to 10 mm,"zone of inhibition at 50 µg/disc ([4]; Rhodovulum iodosum, S1, read-out: zone of inhibition): 2 to 5 mm; zone of inhibition at 50 µg/disc [6]: 2 to 5 mm; zone of inhibition at 50 µg/disc [15]: 2 to 5 mm"
CCCCCCC(C(=O)N1CCCCC1)c1ccccc1 (stereo not drawn) [Compound 12.11],,,,,,,,,,,,,,,,,,,,,"LD50 [2, 17]: >25 µg/mL"
CCCCCCC(CCCCCC)C(=O)N1CCCCC1 [Compound 12.12],,,,,,,,,,,,,,,,,,,,,"LD50 [2, 17]: 0.2 to 1 µg/mL"
